Reference: ChEMBL document CHEMBL1156829 (Proc Natl Acad Sci U S A, 2008)

Columns and labels:
Plasmodium falciparum [1] = assay: NOVARTIS: Inhibition of Plasmodium falciparum 3D7 (drug-susceptible) proliferation in erythrocyte-based infection assay; assay type: functional, organism-based; settings: Plasmodium falciparum, 3D7
Plasmodium falciparum [2] = assay: NOVARTIS: Inhibition of Plasmodium falciparum W2 (drug-resistant) proliferation in erythrocyte-based infection assay; assay type: functional, organism-based; settings: Plasmodium falciparum, W2; read-out: EC50
[3] = NOVARTIS: Cytotoxicity against human hepatocellular carcinoma cell line (Huh7); assay type: toxicity, cell-based, Huh-7; settings: Huh7 cells (hepatocellular carcinoma cell line)

SMILES | EC50 (Plasmodium falciparum [1]) | EC50 (Plasmodium falciparum [2]) | CC50 [3]
COc1ccc(NC2=CC(=O)CC(c3ccccc3)C2)c(OC)c1 (stereo unspecified) | > 12.5 µM | 7.74 µM | > 100 µM
O=C(Oc1ccccc1N1C(=O)C2C3C=CC(C3)C2C1=O)c1ccc([N+](=O)[O-])cc1 (stereo unspecified) | > 9.74 µM | 8.07 µM | > 100 µM
CCC(C)(O)C(=O)O[C@H]1C(=O)OC2CC3C(C)=C[C@H](O)[C@@H](O)[C@]3(C)C3C24CO[C@]3(O)[C@H](O)[C@H](C)C14 (stereo partly specified) | 0.227 µM | 0.215 µM | > 6.25 µM
CCCc1ccc(OCc2nc(-c3ccc(NC(=O)c4cccs4)cc3)no2)cc1 | 0.825 µM | > 12.5 µM | > 100 µM
CCOC(=O)c1c[nH]c2c(CC)cccc2c1=O | 1.66 µM | 2.65 µM | > 100 µM
COc1cc(OC)cc(C(=O)Oc2ccccc2-c2nc3cc(C)ccn3c2NC(C)(C)CC(C)(C)C)c1 | 0.946 µM | 0.054 µM | > 10 µM
Cc1cccc(CCNc2cc(C)nc3ncnn23)c1 | 0.841 µM | 1.08 µM | > 100 µM
CN(C)c1ccc(N2C(N)=NC(N)=NC2(C)C)cc1 | 0.0188 µM | > 1.25 µM | > 10 µM
Cc1ccc(CN2CCN(Cc3ccccc3)CC2)o1 | > 1.25 µM | 1.3 µM | > 8.97 µM
COC(=O)c1c(C)oc2ccc(N(C(=O)c3ccc(C)cc3)S(=O)(=O)c3ccccc3)cc12 | > 1.68 µM | 0.69 µM | > 10 µM
CC1=[N+](CC(=O)c2ccc(C)cc2)CCn2c(C)ccc21 | 1.05 µM | 1.66 µM | > 100 µM
CCCCCCCCCC(=O)N(C)CCCNc1ccnc2cc(Cl)ccc12 | 0.126 µM | 0.206 µM | 5.71 µM
Cc1nc2ccccn2c1C1(O)C(=O)Nc2c(Cl)cc(Cl)cc21 (stereo unspecified) | 0.449 µM | 0.178 µM | > 10 µM
CC(C)NC(=O)N1CCN(C(=O)C(Cc2c[nH]c3ccccc23)NC(=O)Nc2cccc(C#N)c2)CC1C (stereo unspecified) | 0.0567 µM | 0.211 µM | > 10 µM
N=c1ccn(CC(=O)N2CCCc3ccccc32)c2ccccc12 | 1.49 µM | 0.453 µM | > 100 µM
Cc1oc2c(cc(NS(=O)(=O)c3ccc(F)cc3)c3ccccc32)c1C(=O)OCc1ccccc1 | > 1.43 µM | > 12.5 µM | > 100 µM
N[C@@H](COP(=O)(O)O)C(=O)O [DEXFOSFOSERINE] | 1.08 µM | > 1.06 µM | > 10 µM
CCCN(CCC)S(=O)(=O)c1cc(Br)cc2c1N(C(=O)CC)CC2 | 0.476 µM | 0.76 µM | > 100 µM
COc1ccccc1NC(=O)Cn1cnc2sc(C(=O)Nc3ccc(F)cc3)c(C)c2c1=O | 0.513 µM | > 1.71 µM | > 10 µM
COc1cc(NC(C)CCCN(Cc2ccc(Cl)cc2)C(=O)Nc2ccccc2F)c2ncccc2c1 (stereo unspecified) | > 1.09 µM | < 0.000572 µM | > 8.25 µM
CCOc1ccc(Nc2cc(=O)oc3ccccc23)cc1 | 0.61 µM | 0.0919 µM | > 100 µM
CCN(CC)C(=O)COc1ccccc1CNCc1ccccc1 | > 1.25 µM | 1.44 µM | > 10 µM
COc1ccc(C)cc1Nc1nc(N)c2cc(OC)c(OC)cc2n1 | 0.973 µM | 2.04 µM | > 10 µM

SMILES | EC50 (Plasmodium falciparum [1]) | EC50 (Plasmodium falciparum [2]) | CC50 [3]
COc1ccc(C2CC(=O)C3=C(C2)NC(C)=C(C(=O)OC2CCCC2)C3c2ccc(Cl)cc2)cc1OC (stereo unspecified) | 0.029 µM | 0.0167 µM | 21.6 µM
O=C(CCNS(=O)(=O)c1ccc(Br)s1)N1CCc2ccccc2C1 | > 5.6 µM | > 12.5 µM | > 100 µM
CC(C)=CCCC(C)=CCCC(C)NCCN1CCNCC1 (stereo unspecified) | 0.411 µM | 0.14 µM | 6.69 µM
O=C(Nc1ccc(C23CC4CC(CC(c5ccccc5)(C4)C2)C3)cc1)c1cccs1 | 0.645 µM | 0.468 µM | > 100 µM
CCOc1ccc2nc(C)cc(Nc3ccc(N(C)C)cc3)c2c1 | 0.344 µM | 0.662 µM | 16.6 µM
Cc1ccc(S(=O)(=O)c2c(COC(=O)c3cccc(C)c3)c(-c3ccccc3)nn2C)cc1 | 8.4 µM | 6.97 µM | > 100 µM
CC(C)N(CC(=O)Nc1cc(C(C)(C)C)nn1-c1ccc(Cl)c(Cl)c1)C(=O)c1ccc(C(F)(F)F)cc1 | 0.845 µM | 1.33 µM | > 10 µM
O=C(C[n+]1cc(-c2ccc(Cl)cc2)n2c1CCC2)c1ccc(C2CCCCC2)cc1 | 1.31 µM | 0.942 µM | 35.5 µM
CC1=C(C(=O)Nc2ccc(C)cc2C)C(c2ccc([N+](=O)[O-])cc2)n2ncc(C(=O)Nc3ccc(F)cc3)c2N1 (stereo unspecified) | 0.585 µM | 0.514 µM | > 100 µM
CCC1CC2CCC(O2)C(C)C(=O)OC(C)CC2CCC(O2)C(C)C(=O)OC(CC)CC2CCC(O2)C(C)C(=O)OC(C)CC2CCC(O2)C(C)C(=O)O1 (stereo unspecified) | 0.162 µM | 0.228 µM | 0.356 µM
Cc1ccc(-c2cc(-c3cc(Cl)ccc3O)on2)cc1 | > 0.798 µM | 0.472 µM | > 10 µM
CC1CCC2C(C)C(=O)OC3OC(C)C4CC1C32OO4 (stereo unspecified) | 0.0191 µM | 0.00762 µM | > 10 µM
COc1cc2ncnc(NC3CCN(Cc4ccccc4)CC3)c2cc1OC | 0.4 µM | 0.485 µM | > 100 µM
OCC[n+]1c2ccccc2nc2ccc(N3CCOCC3)cc21.[O-][Cl+3]([O-])([O-])[O-] | 0.243 µM | 0.0564 µM | 35 µM
CC1=C(C(=O)OC2CCCCC2)C(c2ccc(Cl)c(Cl)c2)C2=C(CCCC2=O)N1 (stereo unspecified) | 0.735 µM | > 12.5 µM | > 100 µM
Cc1ccn2c(NC(C)(C)CC(C)(C)C)c(-c3ccccc3OC(=O)c3ccc4ccccc4c3)nc2c1 | 0.729 µM | 0.152 µM | > 10 µM
Cc1cc(C)[n+](C)n1CC(O)Cn1c2ccccc2c2ccccc21 (stereo unspecified) | 1.22 µM | 0.691 µM | > 100 µM
CCOc1cc(C=NN=C(N)N)ccc1OCc1ccccc1 | 0.235 µM | 0.321 µM | 10.1 µM
O=[N+]([O-])c1cccc(-c2ccc(C=NNc3nc4ccccc4[nH]3)o2)c1 | 0.379 µM | 0.344 µM | > 100 µM
COc1ccc(C2C3=C(O)CC(C)(C)CC3=Nc3[nH]nc(C)c32)cc1 (stereo unspecified) | > 3.32 µM | > 12.5 µM | > 100 µM
COC(=O)C1=C(C)NC(=Cc2cc(C)n(-c3cc(Cl)ccc3Cl)c2C)C1=O | 0.711 µM | 3.68 µM | > 100 µM
NCC(=O)N1CCn2c(nc(-c3ccccc3)c2Nc2ccc3c(c2)OCO3)C1 | 0.162 µM | 0.198 µM | > 100 µM
O=C(O)c1cc([N+](=O)[O-])ccc1Oc1cncc(Cl)c1 | 0.0333 µM | > 1.25 µM | > 10 µM

SMILES | EC50 (Plasmodium falciparum [1]) | EC50 (Plasmodium falciparum [2]) | CC50 [3]
c1ccc2c(c1)[nH]c1ccc3ccncc3c12 | 0.0853 µM | 0.0242 µM | > 10 µM
Cc1ccc2cc3c(N)c4cccc(C)c4nc3nc2c1 | 0.115 µM | 0.0736 µM | > 10 µM
CCOC(=O)c1c(NC(=O)c2cccnc2)sc(C)c1CC | > 1.09 µM | > 0.714 µM | > 10 µM
Cc1sc2nc(CN(C(=O)CCc3ccccc3)C3CCCCC3)[nH]c(=O)c2c1C | > 1.25 µM | 0.424 µM | 1.94 µM
CC(C)C[C@H](NC(=O)N1CCOCC1)C(=O)N[C@H](/C=C/S(=O)(=O)c1ccccc1)CCc1ccccc1 | 0.21 µM | 0.0377 µM | 48.8 µM
Cc1ccc(NC(=O)N2CCN(C(=O)c3nc(-c4ccccc4)nc(C)c3C(=O)OC(C)C)CC2C)c(C)c1 (stereo unspecified) | > 0.271 µM | 0.336 µM | > 10 µM
CCOc1ccc(Nc2cc(C)nc3ccc(OCC)cc23)cc1 | > 1.25 µM | 0.0203 µM | > 10 µM
CC(=O)N(C1=C(N(C)C)C(=O)c2ccccc2C1=O)c1ccc(Cl)cc1 | 0.0314 µM | 0.0691 µM | 5.46 µM
COCCOC(=O)C1=C(C)NC2=C(C(=O)CCC2)C1c1ccc(OC)c(OC)c1OC (stereo unspecified) | > 6.97 µM | 0.87 µM | > 100 µM
Fc1ccc(C(CCNc2ncnc3c2[nH]c2ccccc23)c2ccco2)cc1 (stereo unspecified) | 0.216 µM | 0.419 µM | 20.2 µM
COc1ccc(SC2CCN(C3CCOCC3)CC2)cc1 | > 1.47 µM | 0.358 µM | 0.24 µM
CCOc1ccc(CN2CCN(CC(O)COc3ccc(OCC(O)CN4CCN(Cc5ccc(OCC)cc5)CC4)cc3)CC2)cc1 (stereo unspecified) | 1.37 µM | 2.68 µM | 73.7 µM
CCCCNC(=O)CSCc1cnn(-c2ccccc2)c1-n1cccc1 | 0.253 µM | 0.257 µM | > 100 µM
COC(=O)C1=C(C)NC(=Cc2cc(C)n(-c3cc(C)ccc3OC)c2C)C1=O | 0.0348 µM | 0.0704 µM | > 100 µM
COc1ccc(C2=C(c3ccc(OC)cc3)C3(c4ccccc4)C(=O)C2(c2ccccc2)C2C(=O)N(c4ccccc4)C(=O)C23)cc1 (stereo unspecified) | 1.4 µM | > 1.13 µM | > 10 µM
COc1cc(C(=O)N2N=C(c3c(-c4ccccc4)c4cc(Br)ccc4[nH]c3=O)CC2c2cccc([N+](=O)[O-])c2)cc(OC)c1OC (stereo unspecified) | 0.362 µM | 0.288 µM | > 100 µM
C=CCNC(=O)c1ccc2c(c1)N=C(CC(C)c1ccccc1)N(CC1CCCCC1)C2 (stereo unspecified) | > 1.25 µM | 1.53 µM | > 10 µM
C=CC1CN2CCC1CC2C(OC(=O)C1CC1)c1ccnc2ccccc12 (stereo unspecified) | 0.0847 µM | 0.199 µM | 42.2 µM
O=C(c1ccc([N+](=O)[O-])cc1)N1CCC(c2nc(O)c3nnn(Cc4c(F)cccc4Cl)c3n2)CC1 | 0.21 µM | 0.401 µM | > 100 µM
CC1=C(C(=O)OC(C)C)C(c2ccccc2F)C2=C(CC(c3ccc(Cl)cc3)CC2=O)N1 (stereo unspecified) | 0.109 µM | 0.0351 µM | > 100 µM
CCc1ccc(C(=O)Oc2ccccc2-c2nc3cc(C)ccn3c2NC(C)(C)CC(C)(C)C)cc1 | 0.454 µM | < 0.00929 µM | > 10 µM
